Data on 6 molecules can be found in PubChem BioAssay AID1023 (Columbia University Molecular Screening Center, 2008).

The subject of the assay is HUVEC TNFalpha-induced p65 nuclear translocation, imaging. The assay is described as follows: inhibitors of TNFa-induced NFkB p65 translocation, SAR follow-up, imaging, HUVEC (AID 1023).
As usually defined, the IC50 is the concentration that inhibits the measured activity by half. In the case of `Cc1ccc2cccc(NS(=O)(=O)c3ccc(Cl)s3)c2n1`, the concentration for half-maximal inhibition (IC50) is 986 nM. Turning to `COc1cc2ccc(C)nc2c2c1-c1cc(C)ccc1S(=O)(=O)N2`, the IC50 was 886 nM. In the case of `COc1ccc2c(c1)-c1ccc3cccnc3c1NS2(=O)=O` it was 992 nM; in that of `COc1ccc(S(=O)(=O)Nc2cccc3ccc(C)nc23)c([N+](=O)[O-])c1`, 1020 nM. For `Cc1ccc2c(c1)-c1ccc3cccnc3c1NS2(=O)=O` the value was 562 nM; for `Cc1ccc2cccc(NS(=O)(=O)c3cccc([N+](=O)[O-])c3)c2n1`, 912 nM.
